Measurements from patent US20060069132A1, “Azolecarboxamide herbicides” (priority 2004, published 2006).

What was measured:
giant foxtail [1] = assay: Test B pre-/postemergence herbicide test; type: in vivo, Setaria faberi; conditions: for Foxtail, Giant plant response rating: postemergence
Outline: (§1)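 Evaluation is visual, comparing treated with control plants on a scale where 0 means no effect and 100 means full control. Treatments were preemergence, or postemergence on seedlings 2–18 cm tall, and held 13–15 days in the greenhouse.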

giant foxtail [2] = assay: Test A pre-/postemergence herbicide test; type: in vivo, Setaria faberi
Outline: (§2)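 Visual injury rating on a 0–100 scale (0 no effect, 100 complete control) versus untreated controls, about ten days after treatment in greenhouse. Pre: directed soil spray onto seeded sandy loam. Post: spray to runoff on plants 2–10 cm tall at one- to two-leaf stage.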

large crabgrass [3] = assay: Test A pre-/postemergence herbicide test; type: in vivo, Digitaria sanguinalis
Outline: as §2

large crabgrass [4] = assay: Test B pre-/postemergence herbicide test; type: in vivo, Digitaria sanguinalis; conditions: for Crabgrass, Large plant response rating: postemergence
Outline: as §1

lambsquarters = assay: Test B pre-/postemergence herbicide test; type: in vivo, Chenopodium album; conditions: for Lambsquarters plant response rating: postemergence
Outline: as §1

blackgrass = assay: Test B postemergence herbicide test; type: in vivo, Alopecurus myosuroides; conditions: postemergence
Outline: (§3)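 Visual ratings, 0 (no effect) to 100 (complete control), made versus controls after 13–15 d greenhouse. Paddy plants treated at 2-leaf stage; postemergence plants at 1- to 4-leaf stage, 2–18 cm tall.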

rice [5] = assay: Test B pre-/postemergence herbicide test; type: in vivo, Oryza sativa; conditions: 0 = no effect, 100 = complete control, preemergence
Outline: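 Plants compared with untreated controls 13–15 days post-treatment and given a visual 0–100 injury score. Applications: preemergence to seeds; postemergence at 1- to 4-leaf (2–18 cm); paddy species flooded, 2-leaf stage. Vehicle non-phytotoxic, surfactant included.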

velvetleaf [6] = assay: Test B pre-/postemergence herbicide test; type: in vivo, Abutilon theophrasti; conditions: for Velvetleaf plant response rating: postemergence
Outline: as §1

morningglory [7] = assay: Test A pre-/postemergence herbicide test; type: in vivo, Ipomoea spp.
Outline: as §2

cocklebur = assay: Test B pre-/postemergence herbicide test; type: in vivo, Xanthium strumarium; conditions: for Cocklebur plant response rating: postemergence
Outline: (§4)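 Visual rating, 0 (no effect) to 100 (complete control), versus untreated controls after 13–15 d in greenhouse. Pre- and postemergence applications (postemergence plants 2–18 cm, 1–4 leaves); flooded paddy arm at 2-leaf stage. Compounds in non-phytotoxic solvent plus surfactant.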

barnyardgrass [8] = assay: Test B pre-/postemergence herbicide test; type: in vivo, Echinochloa crus-galli; conditions: for Barnyardgrass plant response rating: postemergence
Outline: as §4

barnyardgrass [9] = assay: Test B flooded paddy test; type: in vivo, Echinochloa crus-galli; conditions: 1000 g ai/ha, scale 0 to 100 (0 no effect, 100 complete control)
Outline: as §3

morningglory [10] = assay: Test B pre-/postemergence herbicide test; type: in vivo, Ipomoea coccinea; conditions: for Morningglory plant response rating: postemergence
Outline: as §4

wild oat = assay: Test B postemergence herbicide test; type: in vivo, Avena fatua; conditions: postemergence
Outline: (§5)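 Formulated test chemicals went onto postemergence plants measuring 2 to 18 cm, at one to four leaves. For the paddy assay, species had reached two leaves. Scoring took place 13–15 days later by eye, relative to untreated plants, using 0 for no effect up to 100 for full control.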

ducksalad = assay: Test B flooded paddy test; type: in vivo, Heteranthera limosa; conditions: 1000 g ai/ha, scale 0 to 100 (0 no effect, 100 complete control)
Outline: as §3

barnyardgrass [11] = assay: Test A pre-/postemergence herbicide test; type: in vivo, Echinochloa crus-galli
Outline: as §2

velvetleaf [12] = assay: Test A pre-/postemergence herbicide test; type: in vivo, Abutilon theophrasti
Outline: as §2

wheat = assay: Test B postemergence herbicide test; type: in vivo, Triticum aestivum; set-up: key to Wheat plant response rating: 0 = no effect, 100 = complete control; conditions: postemergence
Outline: as §5

corn = assay: Test B pre-/postemergence herbicide test; type: in vivo, Zea mays; conditions: for Corn plant response rating: postemergence
Outline: as §1

[13] = tested on: small flower umbrella sedge; assay: Test B flooded paddy test; type: in vivo, Cyperus difformis; conditions: 1000 g ai/ha, scale 0 to 100 (0 no effect, 100 complete control)
Outline: as §3

Surinam grass = assay: Test B pre-/postemergence herbicide test; type: in vivo, Urochloa decumbens; conditions: for Surinam Grass plant response rating: postemergence
Outline: as §1

pigweed = assay: Test B pre-/postemergence herbicide test; type: in vivo, Amaranthus retroflexus; conditions: for Pigweed plant response rating: postemergence
Outline: as §1

redroot pigweed = assay: Test A pre-/postemergence herbicide test; type: in vivo, Amaranthus retroflexus
Outline: as §2

rice [14] = assay: Test B flooded paddy test; type: in vivo, Oryza sativa; conditions: 1000 g ai/ha, scale 0 to 100 (0 no effect, 100 complete control)
Outline: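 Each value is a visual 0–100 response rating taken against controls 13 to 15 days after treatment in the greenhouse. Plants received formulated chemical postemergence at the 1- to 4-leaf stage or, in flooded paddy, at the 2-leaf stage.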

[15] = 125 g ai/ha, 0 = no effect, 100 = complete control, preemergence
[16] = 500 g ai/ha, visual rating, 0 = no effect, 100 = complete control, preemergence
[17] = 125 g ai/ha, visual rating, scale 0 (no effect) to 100 (complete control)
[18] = 500 g ai/ha, scale 0 to 100, 0 is no effect, 100 is complete control
[19] = Postemergence, 500 g ai/ha, 0 to 100 scale, 0 no effect, 100 complete control
[20] = Postemergence, 2000 g ai/ha, 0 to 100 scale, 0 no effect, 100 complete control
[21] = Preemergence, 2000 g ai/ha, visual rating, 0 to 100 scale (0 no effect, 100 complete control)
[22] = preemergence, 500 g ai/ha, visual injury, 0 to 100 scale (0 no effect, 100 complete control)

## CCN(C)C(=O)c1ccc(F)c(NC(=O)c2cc(C(C)(C)C)nn2CC)n1 [Compound 280]
Giant foxtail [1]; [15]
  Foxtail, Giant plant response rating (0 to 100 scale): 0
Giant foxtail [1]; [16]
  Plant response rating, Foxtail, Giant: 10
Giant foxtail [1]; [17]
  Foxtail, Giant plant response rating: 0
Giant foxtail [1]; [18]
  Foxtail, Giant plant response rating: 0
Giant foxtail [2]; [19]
  Foxtail, Giant plant response rating: 0
Giant foxtail [2]; [20]
  Plant response rating, Foxtail, Giant: 0
Giant foxtail [2]; [21]
  Foxtail, Giant plant response rating: 45
Giant foxtail [2]; [22]
  Foxtail, Giant plant response rating: 5
Large crabgrass [3]; [19]
  Crabgrass, Large plant response rating: 5
Large crabgrass [3]; [20]
  Plant response rating, Crabgrass, Large: 0
Large crabgrass [3]; [21]
  Crabgrass, Large plant response rating: 25
Large crabgrass [3]; [22]
  Crabgrass, Large plant response rating: 0
Large crabgrass [4]; [15]
  Crabgrass, Large plant response rating (0 to 100 scale): 0
Large crabgrass [4]; [16]
  Plant response rating, Crabgrass, Large: 10
Large crabgrass [4]; [17]
  Crabgrass, Large plant response rating: 0
Large crabgrass [4]; [18]
  Crabgrass, Large plant response rating: 0
lambsquarters; [16]
  Plant response rating, Lambsquarters: 80
lambsquarters; [17]
  Lambsquarters plant response rating: 10
lambsquarters; [18]
  Lambsquarters plant response rating: 20
blackgrass; [17]
  Blackgrass plant response rating: 20
blackgrass; [18]
  Blackgrass plant response rating: 20
Rice [5]; 125 g ai/ha
  Rice plant response rating (0 to 100 scale): 0
Rice [5]; 500 g ai/ha, visual rating
  Plant response rating, Rice: 10
Velvetleaf [6]; [15]
  Velvetleaf plant response rating (0 to 100 scale): 10
Velvetleaf [6]; [16]
  Plant response rating, Velvetleaf: 20
Velvetleaf [6]; [17]
  Velvetleaf plant response rating: 10
Velvetleaf [6]; [18]
  Velvetleaf plant response rating: 20
Morningglory [7]; [19]
  Morningglory plant response rating: 0
Morningglory [7]; [20]
  Plant response rating, Morningglory: 10
Morningglory [7]; [21]
  Morningglory plant response rating: 15
Morningglory [7]; [22]
  Morningglory plant response rating: 0
cocklebur; [15]
  Cocklebur plant response rating (0 to 100 scale): 0
cocklebur; [16]
  Plant response rating, Cocklebur: 0
cocklebur; [17]
  Cocklebur plant response rating: 0
cocklebur; [18]
  Cocklebur plant response rating: 30
Barnyardgrass [8]; [15]
  Barnyardgrass plant response rating (0 to 100 scale): 0
Barnyardgrass [8]; [16]
  Plant response rating, Barnyardgrass: 10
Barnyardgrass [8]; [17]
  Barnyardgrass plant response rating: 0
Barnyardgrass [8]; [18]
  Barnyardgrass plant response rating: 0
Barnyardgrass [9]
  Barnyardgrass plant response rating: 0
Morningglory [10]; [15]
  Morningglory plant response rating (0 to 100 scale): 0
Morningglory [10]; [16]
  Plant response rating, Morningglory: 0
Morningglory [10]; [17]
  Morningglory plant response rating: 0
Morningglory [10]; [18]
  Morningglory plant response rating: 10
Wild oat; [17]
  Oat, Wild plant response rating: 10
Wild oat; [18]
  Oat, Wild plant response rating: 20
ducksalad
  Ducksalad plant response rating: 20
Barnyardgrass [11]; [19]
  Barnyardgrass plant response rating: 0
Barnyardgrass [11]; [20]
  Plant response rating, Barnyardgrass: 25
Barnyardgrass [11]; [21]
  Barnyardgrass plant response rating: 45
Barnyardgrass [11]; [22]
  Barnyardgrass plant response rating: 0
Velvetleaf [12]; [19]
  Velvetleaf plant response rating: 20
Velvetleaf [12]; [20]
  Plant response rating, Velvetleaf: 30
Velvetleaf [12]; [21]
  Velvetleaf plant response rating: 30
Velvetleaf [12]; [22]
  Velvetleaf plant response rating: 0
wheat; [17]
  Wheat plant response rating: 20
wheat; [18]
  Wheat plant response rating: 30
corn; [15]
  Corn plant response rating (0 to 100 scale): 0
corn; [16]
  Plant response rating, Corn: 0
corn; [17]
  Corn plant response rating: 0
corn; [18]
  Corn plant response rating: 10
[13]
  Sedge, Umbrella plant response rating: 30
Surinam grass; [15]
  Surinam Grass plant response rating (0 to 100 scale): 0
Surinam grass; [16]
  Plant response rating, Surinam Grass: 10
Surinam grass; [17]
  Surinam Grass plant response rating: 0
Surinam grass; [18]
  Surinam Grass plant response rating: 10
pigweed; [15]
  Pigweed plant response rating (0 to 100 scale): 70
pigweed; [16]
  Plant response rating, Pigweed: 100
pigweed; [17]
  Pigweed plant response rating: 10
pigweed; [18]
  Pigweed plant response rating: 20
Redroot pigweed; [19]
  Pigweed plant response rating: 55
Redroot pigweed; [20]
  Plant response rating, Pigweed: 70
Redroot pigweed; [21]
  Pigweed plant response rating: 90
Redroot pigweed; [22]
  Pigweed plant response rating: 15
Rice [14]
  Rice plant response rating: 0
